These results are taken from US9388136B2, “Tert-butyl N-[2-{4-[6-amino-5-(2,4-difluorobenzoyl)-2-oxopyridin-1(2H)-yl]-3,5-difluorophenyl}ethyl]-L-alaninate or a salt, hydrate or solvate thereof” (Chroma Therapeutics Ltd., priority 2012, dated 2016).

One assay deals with p38 MAP Kinase a (Homo sapiens (Human), UniProt Q16539). The assay can be described thus: p38 MAP kinase enzyme assay (radiometric filter-binding). Type of assay: biochemical. On the procedure: The ability of compounds to inhibit p38 MAP a Kinase activity was measured in an assay performed by Upstate (Dundee UK). In a final reaction volume of 25 μL, p38 MAP Kinase a (5-10 mU) is incubated with 25 mM Tris pH 7.5, 0.002 mMEGTA, 0.33 mg/mL myelin basic protein, 10 mM MgAcetate and [g-33p-ATP] (specific activity approx. 500 cpm/pmol, concentration as required). The reaction is initiated by the addition of the MgATP mix. After incubation for 40 minutes at room temperature, the reaction is stopped by the addition of 5 μL of a 3% phosphoric acid solution. 10 μL of the reaction is then spotted onto a P30 filtermat and washed three times for 5 minutes in 75 mM phosphoric acid and once in methanol prior to drying and scintillation counting.
p38 MAP Kinase a, sequence (Q16539 whole entry): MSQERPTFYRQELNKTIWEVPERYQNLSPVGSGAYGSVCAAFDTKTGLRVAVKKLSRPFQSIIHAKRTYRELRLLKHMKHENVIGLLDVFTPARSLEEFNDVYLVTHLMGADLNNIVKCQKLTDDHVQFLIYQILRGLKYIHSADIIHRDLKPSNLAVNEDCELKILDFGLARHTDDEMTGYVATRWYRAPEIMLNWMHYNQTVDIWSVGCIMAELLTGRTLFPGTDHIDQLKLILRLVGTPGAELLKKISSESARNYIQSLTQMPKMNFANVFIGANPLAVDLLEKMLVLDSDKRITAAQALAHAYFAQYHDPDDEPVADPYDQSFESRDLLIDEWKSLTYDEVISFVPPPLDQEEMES
Duplicate data points are generated from a 1/3 log dilution series of a stock solution in DMSO. Nine dilutions steps are made from a top concentration of 10 μM, and a ‘no compound’ blank is included. The standard radiometric filter-binding assay is performed at an ATP concentration at, or close to, the Km. Data from scintillation counts are collected and subjected to free-fit analysis by Prism software.

The test system of another assay is THP-1 cells. The experiment in a line: LPS-stimulation of THP-1 cells, TNF-α levels by ELISA. Type of assay: cell-based. To be noted: Homo sapiens, THP-1; LPS 1 μg/ml, 6 hrs; read-out: C—ester TNF-alpha inhibition (THP-1 cells), IC50. As to the method: THP-1 cells were plated in 100 μl at a density of 4×10^4 cells/well in V-bottomed 96 well tissue culture treated plates and incubated at 37° C. in 5% CO2 for 16 hrs. 2 hrs after the addition of the inhibitor in 100 μl of tissue culture media, the cells were stimulated with LPS (E coli strain 005:B5, Sigma) at a final concentration of 1 μg/ml and incubated at 37° C. in 5% CO2 for 6 hrs. TNF-α levels were measured from cell-free supernatants by sandwich ELISA (R&D Systems #QTA00B).

In the next assay the test system is human whole blood. The experiment in a line: LPS-stimulation of human whole blood, TNF-α levels by ELISA. Type of assay: cell-based. The note with it: for IC50: Homo sapiens, LPS 100 ng/ml, 6 hrs, read-out: D—ester TNF-alpha inhibition (human whole blood), IC50. On the procedure: Whole blood was taken by venous puncture using heparinised vacutainers (Becton Dickinson) and diluted in an equal volume of RPMI1640 tissue culture media (Sigma). 100 μl was plated in V-bottomed 96 well tissue culture treated plates. 2 hrs after the addition of the inhibitor in 100 μl of RPMI1640 media, the blood was stimulated with LPS (E coli strain 005:B5, Sigma) at a final concentration of 100 ng/ml and incubated at 37° C. in 5% CO2 for 6 hrs. TNF-α levels were measured from cell-free supernatants by sandwich ELISA (R&D Systems #QTA00B).

Setting [1] is: corresponding acid (hydrolysis product of the named ester) tested, read-out: B—acid enzyme assay (p38 kinase A (invitrogen)), IC50.
Where [2] appears, read: ester tested, read-out: A—ester enzyme assay (p38 kinase A (invitrogen)), IC50.

Like-named read-outs stand apart in the source and are kept apart here.

For `Nc1c(C(=O)c2ccc(F)cc2F)ccc(=O)n1-c1c(F)cc(CCN[C@H](C(=O)OC2CCCC2)c2ccccc2)cc1F` [Cyclopentyl (2S)-[(2-{4-[6-amino-5-(2,4-difluorobenzoyl)-2-oxopyridin-1(2H)-yl]-3,5-difluorophenyl}ethyl)amino] (phenyl)acetate], the IC50 stood at 1 nM on p38 MAP Kinase a (setting [1]), 65 nM on p38 MAP Kinase a (setting [2]), 0.5 nM in the assay on THP-1 cells and 148 nM in the assay with human whole blood.

Regarding `CC(C)(C)OC[C@H](NCCc1cc(F)c(-n2c(N)c(C(=O)c3ccc(F)cc3F)ccc2=O)c(F)c1)C(=O)OC(C)(C)C` [tert-butyl N-(2-{4-[6-amino-5-(2,4-difluoro-benzoyl)-2-oxopyridin-1(2H)-yl]-3,5-difluorophenyl}ethyl)-O-tert-butyl-L-serinate], the IC50 on p38 MAP Kinase a (setting [1]) was determined as 1 nM; at p38 MAP Kinase a (setting [2]) it was 72 nM; with THP-1 cells it was 83 nM.

Regarding `CC(C)C[C@H](NCCc1cc(F)c(-n2c(N)c(C(=O)c3ccc(F)cc3)ccc2=O)c(F)c1)C(=O)OC1CCCC1` [Cyclopentyl N-(2-{4-[6-amino-5-(4-fluoro-benzoyl)-2-oxopyridin-1(2H)-yl]-3,5-difluorophenyl}ethyl)-L-leucinate], the IC50 at p38 MAP Kinase a (setting [1]) was determined as 1 nM; on p38 MAP Kinase a (setting [2]), 12 nM; in the assay with THP-1 cells, 0.9 nM; in the assay on human whole blood, 190 nM.

For `CC(C)C[C@H](NCCCCCOc1cc(F)c(-n2c(N)c(C(=O)c3ccc(F)cc3F)ccc2=O)c(F)c1)C(=O)OC(C)(C)C` [tert-Butyl N-(5-{4-[6-amino-5-(2,4-difluoro-benzoyl)-2-oxopyridin-1(2H)-yl]-3,5-difluorophenoxy}pentyl)-L-leucinate], the IC50 on p38 MAP Kinase a (setting [1]) stood at 2 nM; at p38 MAP Kinase a (setting [2]), 73 nM; in the assay with THP-1 cells, 29 nM; with human whole blood, 1250 nM.

On to `CC(C)C[C@@H](NCCc1cc(F)c(-n2c(N)c(C(=O)c3ccc(F)cc3F)ccc2=O)c(F)c1)C(=O)OC(C)(C)C` [tert-butyl N-(2-{4-[6-amino-5-(2,4-difluoro-benzoyl)-2-oxopyridin-1(2H)-yl]-3,5-difluoro-phenyl}ethyl)-D-leucinate], for which the results for the IC50 on p38 MAP Kinase a (setting [1]), at p38 MAP Kinase a (setting [2]) and in the assay on THP-1 cells were 2 nM, 167 nM and 81 nM, respectively. Further, the “D—ester TNF-alpha inhibition (human whole blood), % at single concentration” value in the assay with human whole blood (@ 10 μm) was found to be 0% @ 10 μm.

`CC(C)C[C@H](NCCCOc1cc(F)c(-n2c(N)c(C(=O)c3ccc(F)cc3F)ccc2=O)c(F)c1)C(=O)OCCN1CCOCC1` [2-Morpholin-4-ylethyl N-(3-{4-[6-amino-5-(2,4-difluorobenzoyl)-2-oxopyridin-1(2H)-yl]-3,5-difluoro-phenoxy}propyl)-L-leucinate]: the IC50 in the assay on THP-1 cells was 0.4 nM; in the assay with human whole blood, 935 nM.

Take `CC(C)(C)OC(=O)[C@@H](NCCc1cc(F)c(-n2c(N)c(C(=O)c3ccc(F)cc3F)ccc2=O)c(F)c1)c1ccccc1` [tert-butyl (2S)-[(2-{4-[6-amino-5-(2,4-difluoro-benzoyl)-2-oxopyridin-1(2H)-yl]-3,5-difluorophenyl}ethyl)amino] (phenyl)acetate]: the IC50 was 2 nM in the assay with THP-1 cells and 779 nM in the assay on human whole blood.

For `CC(C)C[C@H](NCCCCCOc1cc(F)c(-n2c(N)c(C(=O)c3ccc(F)cc3F)ccc2=O)c(F)c1)C(=O)OC1CCCC1` [Cyclopentyl N-(5-{4-[6-amino-5-(2,4-difluorobenzoyl)-2-oxopyridin-1(2H)-yl]-3,5 - difluorophenoxy}pentyl)-L-leucinate], the IC50 was found to be 2 nM on p38 MAP Kinase a (setting [1]), 81 nM at p38 MAP Kinase a (setting [2]), 4.2 nM with THP-1 cells and 179 nM with human whole blood.

`Nc1c(C(=O)c2ccc(F)cc2)ccc(=O)n1-c1c(F)cc(OCCCN[C@H](C(=O)OC2CCCC2)c2ccccc2)cc1F` [Cyclopentyl (S)-(3-{4-[6-Amino-5-(4-fluorobenzoyl)-2-oxo-2H-pyridin-1-yl]-3,5-difluoro-phenoxy}propylamino) phenylacetate]: the IC50 in the assay with THP-1 cells worked out at 38 nM.

For `CC(C)C[C@H](NCCc1ccc(-n2c(N)c(C(=O)c3ccc(F)cc3)ccc2=O)cc1)C(=O)OC(C)(C)C` [tert-Butyl N-[2-(4-{6-amino-5-[(4-fluoro-phenyl)carbonyl]-2-oxopyridin-1(2H)-yl}phenyl)ethyl]-L-leucinate], the IC50 was 118 nM at p38 MAP Kinase a (setting [1]), 724 nM at p38 MAP Kinase a (setting [2]), 19 nM in the assay on THP-1 cells and 947 nM in the assay on human whole blood.

Consider `NCC[C@H](NCCCOc1cc(F)c(-n2c(N)c(C(=O)c3ccc(F)cc3F)ccc2=O)c(F)c1)C(=O)OC1CCCC1` [Cyclopentyl (2S)-4-amino-2-[(3-{4-[6-amino-5-(2,4-difluoro-benzoyl)-2-oxopyridin-1(2H)-yl]-3,5-difluoro-phenoxy}propyl)amino]butanoate], for which the IC50 at p38 MAP Kinase a (setting [1]) amounted to 5 nM; at p38 MAP Kinase a (setting [2]), 1 nM; in the assay on THP-1 cells it was 22 nM; in the assay with human whole blood it was 479 nM.

As to `CC(C)C[C@H](NCCCOc1cc(F)c(-n2c(N)c(C(=O)c3ccc(F)cc3F)ccc2=O)c(F)c1)C(=O)OC(C)(C)C` [tert-Butyl (S)-2-(3-{4-[6-Amino-5-(2,4-difluorobenzoyl)-2-oxo-2H-pyridin-1-yl]-3,5-difluoro-phenoxy}propyl-amino)-4-methyl pentanoate], the IC50 came to 76.1 nM in the assay on THP-1 cells and 4270 nM in the assay on human whole blood.

As for `CC(C)[C@H](NCCc1cc(F)c(-n2c(N)c(C(=O)c3ccc(F)cc3F)ccc2=O)c(F)c1)C(=O)OC1CCCC1` [Cyclopentyl N-[2-(4-{6-amino-5-[(2,4-difluoro-phenyl)carbonyl]-2-oxopyridin-1(2H)-yl}-3,5 difluorophenyl)ethyl]-L-valinate], the IC50 on p38 MAP Kinase a (setting [2]) was 22 nM; in the assay on THP-1 cells, 8.4 nM; in the assay with human whole blood, 5180 nM.

Take `CCOC(=O)[C@H](CC(C)C)NCCCOc1cc(F)c(-n2c(N)c(C(=O)c3ccc(F)cc3)ccc2=O)c(F)c1` [Ethyl N-(3-{4-[6-amino-5-(4-fluoro-benzoyl)-2-oxopyridin-1(2H)-yl]-3,5-difluorophenoxy}propyl)-L-leucinate]: the IC50 on p38 MAP Kinase a (setting [2]) came out at 28 nM; in the assay on THP-1 cells, 8.6 nM.

As for `CC(C)C[C@H](NCCCOc1cc(F)c(-n2c(N)c(C(=O)c3ccc(F)cc3F)ccc2=O)c(F)c1)C(=O)OC1CCCC1` [Cyclopentyl (S)-2-(3-{4-[6-Amino-5-(2,4-difluorobenzoyl)-2-oxo-2H-pyridin-1-yl]-3,5-difluoro-phenoxy}propyl-amino)-4-methyl pentanoate], the values for the IC50 in the assay with THP-1 cells and in the assay with human whole blood were 10.7 nM and 594 nM, respectively.

`Nc1c(C(=O)c2ccc(F)cc2F)ccc(=O)n1-c1c(F)cc(OCCCN[C@H](C(=O)OC2CCCC2)c2ccccc2)cc1F` [Cyclopentyl (S)-(3-{4-[6-Amino-5-(2,4-difluorobenzoyl)-2-oxo-2H-pyridin-1-yl]-3,5-difluoro-phenoxy}propylamino) phenyl acetate]: the IC50 in the assay on THP-1 cells was 5.3 nM; in the assay on human whole blood, 508 nM.

Take `Nc1c(C(=O)c2ccc(F)cc2F)ccc(=O)n1-c1c(F)cc(OCCCN[C@@H](C(=O)OC2CCCC2)c2ccccc2)cc1F` [Cyclopentyl (2R)-[(3-{4-[6-amino-5-(2,4-difluorobenzoyl)-2-oxopyridin-1(2H)-yl]-3,5-difluorophenoxy}propyl)amino] (phenyl)acetate]: the IC50 in the assay on THP-1 cells turned out to be 6 nM.
